In patent publication US10131652B2, “Pyrimidinyloxy benzene derivatives as herbicides” (E. I. DU PONT DE NEMOURS AND COMPANY, priority 2014, dated 2018):
Read-outs that look alike come from different tables or passages of the source.

Assays:
Format in all cases: in vivo
[1] = system: velvetleaf (Abutilon theophrasti); experiment: Test B pre-/postemergence plant response; details: for pest or weed control at 125 g/ha / pest or weed control at 500 g/ha: Abutilon theophrasti, 240 h, read-out: Plant response rating, Velvetleaf; for pest or weed control at 500 g/ha: 500 g ai/ha
Outline: (§1)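 Scoring used a 0–100 scale (100 = complete control) by visual comparison with untreated plants after approximately 10 days in the greenhouse. Compounds, in surfactant-containing non-phytotoxic solvent, were sprayed onto soil at planting or onto 2–10 cm seedlings.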

[2] = system: large (Lg) crabgrass (Digitaria sanguinalis); experiment: Test B pre-/postemergence plant response; details: for pest or weed control at 125 g/ha / pest or weed control at 500 g/ha: Digitaria sanguinalis, 240 h, read-out: Plant response rating, Crabgrass, Large; for pest or weed control at 500 g/ha: 500 g ai/ha
Outline: as §1

[3] = system: morningglory (Ipomoea spp.); experiment: Test B pre-/postemergence plant response; details: for pest or weed control at 125 g/ha / pest or weed control at 500 g/ha: Ipomoea, 240 h, read-out: Plant response rating, Morningglory; for pest or weed control at 500 g/ha: 500 g ai/ha
Outline: as §1

[4] = system: chickweed (common chickweed, Stellaria media); experiment: Test D postemergence plant response; details: for pest or weed control at 31 g/ha: 31 g ai/ha, scale 0 to 100 (0 no effect, 100 complete control), read-out: Chickweed plant response rating; for pest or weed control at 62 g/ha: 62 g ai/ha; for pest or weed control at 125 g/ha: 125 g ai/ha
Outline: (§2)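 The formulated test chemicals were applied over the foliage of young potted plants (2 to 18 cm tall), which were then held under greenhouse conditions. Between days 13 and 15 each species was rated by eye versus controls, from 0 for no effect up to 100 for complete control.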

wild oat (Avena fatua) = experiment: Test D postemergence plant response; details: for pest or weed control at 31 g/ha: 31 g ai/ha, scale 0 to 100 (0 no effect, 100 complete control); for pest or weed control at 62 g/ha: 62 g ai/ha; for pest or weed control at 125 g/ha: 125 g ai/ha
Outline: as §2

kochia (Kochia scoparia) = experiment: Test D postemergence plant response; details: for pest or weed control at 31 g/ha: 31 g ai/ha, scale 0 to 100 (0 no effect, 100 complete control), read-out: Kochia plant response rating; for pest or weed control at 62 g/ha: 62 g ai/ha; for pest or weed control at 125 g/ha: 125 g ai/ha
Outline: as §2

[5] = system: waterhemp_RES2 (ALS & HPPD resistant common waterhemp, Amaranthus rudis); experiment: Test F postemergence plant response; details: scale 0 to 100
Outline: (§3)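 Rated visually versus controls, 0 (no effect) to 100 (complete control), after 14–21 days in greenhouse. Compounds were sprayed postemergence on seedlings at 1- to 4-leaf stage, 2–18 cm tall.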

[6] = system: waterhemp_RES1 (ALS & Triazine resistant common waterhemp, Amaranthus rudis); experiment: Test F postemergence plant response; details: scale 0 to 100
Outline: as §3

[7] = post-emergence, 125 g ai/ha, postemergence, 0 to 100 scale, 0 no effect, 100 complete control
[8] = post-emergence, Postemergence, 0 to 100 scale (0 no effect, 100 complete control)
[9] = pre-emergence, Preemergence, 125 g ai/ha, 0 to 100 scale where 0 is no effect and 100 is complete control
[10] = pre-emergence, Preemergence, 0 to 100 scale where 0 is no effect and 100 is complete control
[11] = Stellaria media, post-emergence
[12] = Stellaria media, post-emergence, scale 0 to 100, 0 no effect, 100 complete control, read-out: Plant response rating, Chickweed
[13] = Avena fatua, post-emergence, read-out: Oat, Wild plant response rating
[14] = Avena fatua, post-emergence, scale 0 to 100, 0 no effect, 100 complete control, read-out: Plant response rating, Oat, Wild
[15] = Bassia scoparia, post-emergence
[16] = Bassia scoparia, post-emergence, scale 0 to 100, 0 no effect, 100 complete control, read-out: Plant response rating, Kochia
[17] = post-emergence, postemergence, 0 to 100 scale, 0 no effect, 100 complete control
[18] = Preemergence, 125 g ai/ha, 0 to 100 scale (0 no effect, 100 complete control)

Structure (SMILES)	pest or weed control at 125 g/ha [1, 7]	pest or weed control at 500 g/ha [1, 10]	pest or weed control at 125 g/ha [2, 7]	pest or weed control at 500 g/ha [2, 10]	pest or weed control at 125 g/ha [3, 7]	pest or weed control at 500 g/ha [3, 10]	pest or weed control at 31 g/ha [4, 11]	pest or weed control at 62 g/ha [4, 12]	pest or weed control at 125 g/ha [4, 12]	pest or weed control at 31 g/ha (wild oat (Avena fatua); [13])	pest or weed control at 125 g/ha (wild oat (Avena fatua); [14])	pest or weed control at 31 g/ha (kochia (Kochia scoparia); [15])	pest or weed control at 62 g/ha (kochia (Kochia scoparia); [16])	pest or weed control at 125 g/ha (kochia (Kochia scoparia); [16])	Plant response rating, Waterhemp_RES2 ([5]; 8 g ai/ha Postemergence)	Plant response rating, Waterhemp_RES2 ([5]; 16 g ai/ha Postemergence)	Plant response rating, Waterhemp_RES2 ([5]; 31 g ai/ha Postemergence)	Plant response rating, Waterhemp_RES2 ([5]; 62 g ai/ha Postemergence)	Plant response rating, Waterhemp_RES2 ([5]; 125 g ai/ha Postemergence)	Plant response rating, Waterhemp_RES1 ([6]; 8 g ai/ha Postemergence)	other results
FC(F)c1cc(-c2ccccc2Oc2ncc(Br)cn2)no1 [Compound 62, 5-bromo-2-[2-[5-(difluoromethyl)-3-isoxazolyl]phenoxy]pyrimidine]	100%	100%	70%	100%	90%	90%	70%	95%	98%	30%	50%	98%	100%	100%	80	80	100	100	100	80	pest or weed control at 500 g/ha [1, 8]: 100%; pest or weed control at 125 g/ha [1, 9]: 90%; pest or weed control at 500 g/ha [2, 8]: 90%; pest or weed control at 125 g/ha [2, 9]: 100%; pest or weed control at 500 g/ha [3, 8]: 100%; pest or weed control at 125 g/ha [3, 9]: 60%; pest or weed control at 250 g/ha ([4]; Stellaria media, post-emergence, 250 g ai/ha, scale 0 to 100, 0 no effect, 100 complete control, read-out: Plant response rating, Chickweed): 100%; pest or weed control at 62 g/ha (wild oat (Avena fatua); [14]): 40%; pest or weed control at 250 g/ha (wild oat (Avena fatua); Avena fatua, post-emergence, 250 g ai/ha, scale 0 to 100, 0 no effect, 100 complete control, read-out: Plant response rating, Oat, Wild): 60%; pest or weed control at 250 g/ha (kochia (Kochia scoparia); Bassia scoparia, post-emergence, 250 g ai/ha, scale 0 to 100, 0 no effect, 100 complete control, read-out: Plant response rating, Kochia): 100%; Plant response rating, Waterhemp_RES1 ([6]; 16 g ai/ha Postemergence): 85; Plant response rating, Waterhemp_RES1 ([6]; 31 g ai/ha Postemergence): 100; Plant response rating, Waterhemp_RES1 ([6]; 62 g ai/ha Postemergence): 100; Plant response rating, Waterhemp_RES1 ([6]; 125 g ai/ha Postemergence): 100
FC(F)(F)c1cc(-c2ccccc2Oc2ncc(Cl)cn2)no1 [Compound 200, 5-chloro-2-[2-[5-(trifluoromethyl)-3-isoxazolyl]phenoxy]pyrimidine]	100%	90%	100%	100%	90%	100%	95%	100%	100%	30%	55%	100%	100%	100%	75	95	95	98	98	70	pest or weed control at 500 g/ha [1, 17]: 100%; Velvetleaf plant response rating [1, 18]: 80; pest or weed control at 500 g/ha [2, 17]: 100%; Crabgrass, Large plant response rating [2, 18]: 100; pest or weed control at 500 g/ha [3, 17]: 100%; Morningglory plant response rating [3, 18]: 20; Plant response rating (scale 0 to 100), Chickweed ([4]; 16 g ai/ha): 60; Plant response rating (scale 0 to 100), Oat, Wild (wild oat (Avena fatua); 16 g ai/ha): 20; pest or weed control at 62 g/ha (wild oat (Avena fatua); Avena fatua, post-emergence, scale 0 to 100, 0 no effect, 100 complete control, read-out: Oat, Wild plant response rating): 30%; Plant response rating (scale 0 to 100), Kochia (kochia (Kochia scoparia); 16 g ai/ha): 95; Plant response rating, Waterhemp_RES1 ([6]; 16 g ai/ha Postemergence): 75; Plant response rating, Waterhemp_RES1 ([6]; 31 g ai/ha Postemergence): 90; Plant response rating, Waterhemp_RES1 ([6]; 62 g ai/ha Postemergence): 95; Plant response rating, Waterhemp_RES1 ([6]; 125 g ai/ha Postemergence): 98
